Data from patent US8431557B2, “Treatment of menopause-associated symptoms” (Besins Healthcare Luxembourg SARL, priority 2006, dated 2013).

System: menopausal women
Assay: Placebo-controlled study: severity of moderate to severe hot flushes
Format: in vivo, human (women)
Set-up: key to Severity of Moderate to Severe Hot Flushes, Mean Change from Baseline / Severity of Moderate to Severe Hot Flushes, Mean: 0 none, 1 mild, 2 moderate, 3 severe hot flush intensity
Conditions: for Severity of Moderate to Severe Hot Flushes, Mean: Baseline
Experimental: This study was a multi-centred, double-blind, placebo-controlled, parallel group comparison. A total of 351 subjects were enrolled at 78 sites in the United States.
A two-week, medication free, Pre-Treatment Phase was used to determine subject vasomotor symptoms. Efficacy assessments included the number and intensity of hot flushes per day, and severity of vulvar and vaginal atrophy symptoms.
The three treatment groups comprised the following dosages: • A 0.375 mg dose (1.25 g of gel @ 0.03%) applied to one arm and 0.9 g of placebo gel applied on the other arm once daily for 12 weeks; • A 0.27 mg dose (0.9 g of gel @ 0.03%) applied to one arm and 1.25 g of placebo gel applied on the other arm once daily for 12 weeks; and • 0.9 g of placebo gel applied to one arm and 1.25 g of placebo gel applied on the other arm once daily for 12 weeks.
The Treatment Phase was 12 weeks. A pre-treatment period of 2 weeks was used to initially evaluate each subject's vasomotor symptoms.
All data were analyzed using the approach of Observed Cases (OC).
For all continuous primary and secondary efficacy parameters, descriptive statistics tables and 2-way ANCOVA with fixed factors treatment and centre, and baseline value as covariate were provided. The interaction of treatment and centre was investigated using 2-way ANCOVA with fixed factors treatment, centre, and treatment-by-centre interaction with baseline value as covariate. To control the Type-I error rate, a step-down procedure using contrasts was performed to compare each treatment group to the placebo group. First, the group with the 0.375 mg dose was compared against placebo at the α=0.05 level (2-sided). If the null hypothesis was rejected, the group with the 0.27 mg dose was compared to placebo at the α=0.05 level (2-sided). Graphs were used to characterize the dose response. If the assumptions of the model were not met, then van Elteren's test with centre as the stratification variable was used in the step-down procedure. For categorical data, Fisher's exact test was used to compare treatment groups.
The study assessed the following variables: • Mean change in frequency of moderate to severe vasomotor symptoms from baseline to Week 4; • Mean change in frequency of moderate to severe vasomotor symptoms from baseline to Week 12; • Mean change in severity of moderate to severe vasomotor symptoms from baseline to Week 4; • Mean change in severity of moderate to severe vasomotor symptoms from baseline to Week 12; • Mean change in frequency of moderate-to-severe hot flushes at each week; • Mean change in severity of moderate-to-severe hot flushes at each week; • Mean change from baseline to Week 12 in the moderate to severe symptom of vulvar and vaginal atrophy that has been identified by the subject as being the most bothersome to her (vaginal pain, dryness, irritation/itching, bleeding, dysuria);
Severity of moderate to severe vasomotor symptoms was defined as (2*number of moderate hot flushes+3*number of severe hot flushes)/total number of moderate and severe hot flushes.
As with frequency, if less than 10 days of data were available for the baseline period, the baseline severity was considered missing.
On a daily basis, the subject recorded the number of hot flushes and rated the intensity of each based on a four-point scale as follows: • 0 (none) • 1 (mild) Sensation of heat without perspiration • 2 (moderate) Sensation of heat with perspiration, but the subject was able to continue with their activity • 3 (severe) Sensation of heat with sweating, sufficiently severe to result in discontinuation of activity Assessment of Vulvar and Vaginal Atrophy Symptom Severity

With C[C@]12CC[C@@H]3c4ccc(O)cc4CC[C@H]3[C@@H]1CC[C@@H]2O [estradiol, 17-beta estradiol] the “Week at which statistical significance vs placebo was achieved, severity of moderate to severe hot flushes” value (0.27 mg dose) was 8 Week, the “Severity of Moderate to Severe Hot Flushes, Mean” value (0.27 mg dose) was 2.52 and the “Severity of Moderate to Severe Hot Flushes, Mean Change from Baseline” value (shortened to “Severity of Moderate … Mean Change from Baseline”) (0.27 mg dose, Week 1) was −0.02. The “Severity of Moderate … Mean Change from Baseline” value (0.27 mg dose, Week 2) was −0.10, the “Severity of Moderate … Mean Change from Baseline” value (0.27 mg dose, Week 3) was −0.21 and the “Severity of Moderate … Mean Change from Baseline” value (0.27 mg dose, Week 4) was −0.26. The “Severity of Moderate … Mean Change from Baseline” value (0.27 mg dose, Week 5) was −0.29, the “Severity of Moderate … Mean Change from Baseline” value (0.27 mg dose, Week 6) was −0.36 and the “Severity of Moderate … Mean Change from Baseline” value (0.27 mg dose, Week 7) was −0.40. For the same molecule, the “Severity of Moderate … Mean Change from Baseline” value (0.27 mg dose, Week 8) was −0.46, the “Severity of Moderate … Mean Change from Baseline” value (0.27 mg dose, Week 9) was −0.60 and the “Severity of Moderate … Mean Change from Baseline” value (0.27 mg dose, Week 10) was −0.58. For the same molecule, the “Severity of Moderate … Mean Change from Baseline” value (0.27 mg dose, Week 11) was −0.66, the “Severity of Moderate … Mean Change from Baseline” value (0.27 mg dose, Week 12) was −0.70 and the “Week at which statistical significance vs placebo was achieved, severity of moderate to severe hot flushes” value (0.375 mg dose) was 4 Week. For the same molecule, the “Severity of Moderate to Severe Hot Flushes, Mean” value (0.375 mg dose) was 2.52, the “Severity of Moderate … Mean Change from Baseline” value (0.375 mg dose, Week 1) was 0.00 and the “Severity of Moderate … Mean Change from Baseline” value (0.375 mg dose, Week 2) was −0.10. The “Severity of Moderate … Mean Change from Baseline” value (0.375 mg dose, Week 3) was −0.19, the “Severity of Moderate … Mean Change from Baseline” value (0.375 mg dose, Week 4) was −0.31 and the “Severity of Moderate … Mean Change from Baseline” value (0.375 mg dose, Week 5) was −0.35. For the same molecule, the “Severity of Moderate … Mean Change from Baseline” value (0.375 mg dose, Week 6) was −0.49, the “Severity of Moderate … Mean Change from Baseline” value (0.375 mg dose, Week 7) was −0.67 and the “Severity of Moderate … Mean Change from Baseline” value (0.375 mg dose, Week 8) was −0.59. The “Severity of Moderate … Mean Change from Baseline” value (0.375 mg dose, Week 9) was −0.77, the “Severity of Moderate … Mean Change from Baseline” value (0.375 mg dose, Week 10) was −0.76 and the “Severity of Moderate … Mean Change from Baseline” value (0.375 mg dose, Week 11) was −0.89. The “Severity of Moderate … Mean Change from Baseline” value (0.375 mg dose, Week 12) was −0.90.
